Test [1] deals with human GABAA α2β2γ1 receptor (Homo sapiens (Human), UniProt P47869+Q8N1C3). Description: Radioligand binding assay for γ1-containing GABAA subtypes, [3H]RO7239181 competition (α2β2γ1). Here is the method:
(§1) The affinity of compounds at GABAA γ1 subunit-containing receptors was measured by competition for [^3H]RO7239181 (67.3 Ci/mmol; Roche) binding to membranes from HEK293F cells (ThermoFisher R79007) expressing human (transiently transfected) receptors of composition α5β2γ1, α2β2γ1, α1β2γ1.
(§2) Harvested pellets from HEK293F cells expressing the different GABAA receptor subtypes were resuspended in Mannitol Buffer pH 7.2-7.4 (Mannitol 0.29 M, Triethylamine 10 mM, Acetic acid 10 mM, EDTA 1 mM plus protease inhibitors (20 tablets Complete, Roche Diagnostics Cat. No. 05 056 489 001 per liter)), washed two times and then resuspended at 1:10 to 1:15 dilution in the same buffer. Cell disruption was performed by stirring the suspension in a Parr vessel #4637 at 435 psi for 15 minutes, and then the suspensions were centrifuged at 1000×g for 15 minutes at 4° C. (Beckman Avanti J-HC; rotor JS-4.2). The supernatant (S1) was transferred in a 2 l Schott flask and the pellet (P1) was resuspended with Mannitol Buffer up to 175 ml. The resuspended pellet was transferred into a 250 ml Corning centrifugal beaker and centrifuged at 1500×g for 10 minutes at 4° C. (Beckman Avanti J-HC; rotor JS-4.2). The supernatant (S1) was then transferred in the 2 l Schott flask and the pellet was discarded. The supernatants (S1) were centrifuged in 500 ml Beckman polypropylene centrifugal beaker at 15′000×g for 30 minutes at 4° C. (Beckman Avanti J-20 XP; rotor JLA-10.500). The pellet (P2) was resuspended with Mannitol Buffer 1:1 and frozen at −80° C. The supernatant (S2) was centrifuged in 100 ml Beckman polypropylene centrifugal tubes at 48000×g for 50 minutes at 4° C. (Beckman Avanti J-20 XP; rotor JA-18). The supernatant (S3) was discarded and the pellet (P3) was resuspended with 1:1 Mannitol Buffer. The P2 and P3 protein concentration was determined with the BIORAD Standard assay method with bovine serum albumin as standard and measured on the NANO-Drop 1000. The membrane suspension was aliquots (500 μl per tube) and stored at −80° C. until required.
(§3) Membrane homogenates were resuspended and polytronised (Polytron PT1200E Kinematica AG) in Potassium Phosphate 10 mM, KCl 100 mM binding buffer at pH 7.4 to a final assay concentration determined with a previous experiment.
(§4) Assays were incubated to equilibrium for 1 hour at 4° C. and then, membranes were filtered onto unifilter (96-well white microplate with bonded GF/C filters preincubated 20-50 minutes in 0.3% Polyethylenimine) with a Filtermate 196 harvester (Packard BioScience) and washed 4 times with cold Potassium Phosphate 10 mM pH 7.4, KCl 100 mM binding buffer. After anhydrousing, filter-retained radioactivity was detected by liquid scintillation counting. Ki values were calculated using Excel-Fit (Microsoft) and are the means of two determinations.

Test [2] concerns the target human GABAA α5β2γ1 receptor (Homo sapiens (Human), UniProt P31644+Q8N1C3). Description: Radioligand binding assay for γ1-containing GABAA subtypes, [3H]RO7239181 competition (α5β2γ1). The method, then: as §1, §2, §3, §4
The target in test [3] is α2β2γ1 GABAA receptor subtype (Homo sapiens (Human), UniProt P47869+Q8N1C3). Description: Two-electrode voltage clamp electrophysiology in Xenopus oocytes expressing GABAA receptors (modulation of GABA EC20 current). It is filed as cell-based. Particulars: for Efficacy (GABA)%: % modulation of GABA EC20 = 100*(Fold increase-1), α2β2γ1 oocytes, compound at approx. 30-fold Ki; for Fold increase h-GABA-A α2β2γ1 oocyte @ 30-fold Ki: Xenopus oocytes expressing α2β2γ1, compound at approx. 30-fold its Ki α2β2γ1, GABA EC20 current. The method, then:
Xenopus laevis oocytes at maturation stages V-VI were used for the expression of cloned mRNA encoding GABAA receptor subunits. Oocytes ready for RNA micro-injection were bought from Ecocyte, Castrop-Rauxel, Germany and stored in modified Barth's medium (composition in mM: NaCl 88, KCl 1, NaHCO3 2.4, HEPES 10, MgSO4 0.82, CaNO3 0.33, CaCl2 0.33, pH=7.5) at 20° C. until the experiment.
Oocytes were plated in 96-well plates for microinjection using the Roboinject automated instrument (MultiChannelSystems, Reutlingen, Germany). Approximately 50 nL of an aqueous solution containing the RNA transcripts for the subunits of the desired GABAA receptor subtype was injected into each oocyte. […] Oocytes were kept in modified Barth's medium (composition in mM: NaCl 88, KCl 1, NaHCO3 […], HEPES 10, MgSO4 0.82, CaNO3 0.33, CaCl2 0.33, pH=7.5) at 20° C. until the experiment.
Electrophysiological experiments were performed using the Roboocyte instrument (MultiChannelSystems, Reutlingen, Germany) on days 3 to 5 after the micro-injection of mRNA. During the experiment the oocytes were constantly superfused by a solution containing (in mM) NaCl 90, KCl 1, HEPES 5, MgCl2 1, CaCl2 1 (pH 7.4). Oocytes were impaled by two glass microelectrodes (resistance: 0.5-0.8 MΩ) which were filled with a solution containing KCl 1M+K-acetate 1.5 M and voltage-clamped to −80 mV. The recordings were performed at room temperature using the Roboocyte two-electrode voltage clamp system (Multichannelsystem). After an initial equilibration period of 1.5 min GABA was added for 1.5 min at a concentration evoking approximately 20% of a maximal current response (EC20). After another rest interval of 2.5 min GABA was again added evoking a response of similar amplitude and shape. […] Current traces were recorded at a digitization rate of 10 Hz during and shortly before and after the GABA application.
Each compound and concentration was tested on at least 3 oocytes. Different oocytes were used for different compound concentrations.
For the analysis, the digitized current traces of the first and second GABA response were superimposed and, if necessary, rescaled to equal maximal amplitudes. The ratio between the two responses during the time interval of test compound application was calculated point by point. The extremum of the resulting “ratio trace” was taken as the efficacy (“Fold increase”) of the compound expressed as “% modulation of GABA EC20” (100*(Fold increase-1)).
On the technique in general: Two-electrode voltage clamp is typically applied to oocytes expressing channels or transporters.

For test [4], the target named is human GABAA α1β3γ2 receptor (Homo sapiens (Human), UniProt P14867+P18507). Put plainly: Radioligand binding assay for γ2-containing GABAA subtypes, [3H]Flumazenil competition (α1β3γ2). Particulars: for γ2/γ1 Selectivity Ratio: Ki α1β3γ2 (nM)/Ki α2β2γ1 (nM); for LogSel: Log[Ki α1β3γ2 (nM)/Ki α2β2γ1 (nM)]. Here is the method:
The affinity of compounds at GABAA γ2 subunit-containing receptors was measured by competition for [^3H]Flumazenil (81.1 Ci/mmol; Roche) binding to HEK293F cells expressing human (transiently transfected) receptors of composition α1β3γ2.
Harvested pellets from HEK293F cells expressing the different GABAA γ2 receptor subtypes were resuspended in Mannitol Buffer pH 7.2-7.4 and processed as described above for the cells expressing the GABAA γ1 subunit-containing receptors.
Assays were incubated to equilibrium for 1 hour at 4° C. and harvested onto GF/C uni-filters (Packard) by filtration using a Packard harvester and washing with ice-cold wash buffer (50 mM Tris; pH 7.5). After anhydrousing, filter-retained radioactivity was detected by liquid scintillation counting. Ki values were calculated using Excel-Fit (Microsoft) and are the means of two determinations.

Where [5] appears, read: Ki h-GABAA α2β2γ1, [3H]RO7239181 competition binding, human GABAA α2β2γ1.
The mark [6] stands for this setting: Ki h-GABAA α2β2γ1, displacement of [3H]RO7239181, membranes of HEK293F cells expressing human receptors, means of two determinations.

In general, Ki refers to a measure of affinity in units of concentration, obtained from inhibition or displacement. A low value points to a stronger hold on the target.

Compound `C[C@@H]1N=C(c2c(F)cccc2F)c2c(ccc(Cl)c2Cl)-n2nc(C(=O)N3CC4(CCO4)C3)nc21` [Example 94, [(4S)-7,8-dichloro-6-(2,6-difluorophenyl)-4-methyl-4H-[1,2,4]triazolo[1,5-a][1,4]benzodiazepin-2-yl]-(1-oxa-6-azaspiro[3.3]heptan-6-yl)methanone] had an inhibition constant Ki in test [1] (setting [5]) of 3.9 nM. In addition, in test [1] (setting [6]), affinity was put at a Ki of 3.89 nM. For the same compound, in test [2], the Ki amounted to 1.43 nM. Also, in test [3], the “Efficacy (GABA)%” value came out at 76% and the “Fold increase h-GABA-A α2β2γ1 oocyte @ 30-fold Ki” value was determined as 1.76. In test [4], the Ki came out at 0.586 µM, the “γ2/γ1 Selectivity Ratio” value came to 150.7 and the LogSel is on record as 2.18.
In test [1] (setting [5]), `C[C@@H]1N=C(c2ncccc2F)c2c(ccc(C(F)(F)F)c2Cl)-n2cc(C(=O)NCCO)nc21` [Example 141, (4S)-7-chloro-6-(3-fluoro-2-pyridyl)-N-(2-hydroxyethyl)-4-methyl-8-(trifluoromethyl)-4H-imidazo[1,2-a][1,4]benzodiazepine-2-carboxamide] yielded a Ki of 55.9 nM. In test [1] (setting [6]), this compound yielded an inhibition constant (Ki) of 55.9 nM. Also, the affinity in test [2] corresponds to a Ki of 12.4 nM. In addition, in test [3], the “Efficacy (GABA)%” value came to 112% and the “Fold increase h-GABA-A α2β2γ1 oocyte @ 30-fold Ki” value came out at 2.12. For the same compound, in test [4], the inhibition constant (Ki) was 12.2 µM, the “γ2/γ1 Selectivity Ratio” value is 218.4 and the LogSel came to 2.34.
With `C[C@@H]1N=C(c2ncccc2F)c2c(ccc(C(F)(F)F)c2Cl)-n2c(CO)cnc21` [Example 151, [(4S)-7-chloro-6-(3-fluoro-2-pyridyl)-4-methyl-8-(trifluoromethyl)-4H-imidazo[1,2-a][1,4]benzodiazepin-1-yl]methanol], the Ki was determined as 92.8 nM in test [1] (setting [5]), 92.8 nM in test [1] (setting [6]), 24 nM in test [2] and 13.2 µM in test [4]. Also, the “Efficacy (GABA)%” value in test [3] is recorded as 253%. In test [3], the “Fold increase h-GABA-A α2β2γ1 oocyte @ 30-fold Ki” value is on record as 3.53. Moreover, the “γ2/γ1 Selectivity Ratio” value in test [4] was determined as 142.0. Also, the LogSel in test [4] is 2.15.
Take `[2H]C([2H])([2H])OC1CN(C(=O)c2nc3n(n2)-c2ccc(Cl)c(Cl)c2C(c2c(F)cccc2F)=N[C@H]3C)C1` [Example 17, [(4S)-7,8-dichloro-6-(2,6-difluorophenyl)-4-methyl-4H-[1,2,4]triazolo[1,5-a][1,4]benzodiazepin-2-yl]-[3-(trideuteriomethoxy)azetidin-1-yl]methanone]: the Ki worked out at 2.6 nM in test [1] (setting [5]), 2.59 nM in test [1] (setting [6]), 1.3 nM in test [2] and 0.579 µM in test [4]. Also, in test [3], the “Efficacy (GABA)%” value was 44%. Besides, the “Fold increase h-GABA-A α2β2γ1 oocyte @ 30-fold Ki” value in test [3] is 1.44. Also, the “γ2/γ1 Selectivity Ratio” value in test [4] is reported as 223.3. The compound also yielded a LogSel in test [4] of 2.35.
As for `COC1CN(C(=O)Nc2nc3n(n2)-c2ccc(C(F)(F)F)c(Cl)c2C(c2c(F)cccc2F)=N[C@H]3C)C1` [Example 127, N-[(4S)-7-chloro-6-(2,6-difluorophenyl)-4-methyl-8-(trifluoromethyl)-4H-[1,2,4]triazolo[1,5-a][1,4]benzodiazepin-2-yl]-3-methoxy-azetidine-1-carboxamide], the inhibition constant Ki in test [1] (setting [5]) came out at 49.4 nM; in test [1] (setting [6]), 49.4 nM; in test [2], 5.46 nM; in test [4], 4.76 µM. In addition, the “Efficacy (GABA)%” value in test [3] stood at 112%. The “Fold increase h-GABA-A α2β2γ1 oocyte @ 30-fold Ki” value in test [3] is on record as 2.12. Besides, the “γ2/γ1 Selectivity Ratio” value in test [4] came to 96.5. Besides, the LogSel in test [4] is reported as 1.98.
For the compound `C[C@@H]1N=C(c2c(F)cccc2F)c2c(ccc(Cl)c2Cl)-n2nc(N3CC(C#N)C3)nc21` [Example 77, 1-[(4S)-7,8-dichloro-6-(2,6-difluorophenyl)-4-methyl-4H-[1,2,4]triazolo[1,5-a][1,4]benzodiazepin-2-yl]azetidine-3-carbonitrile], the Ki in test [1] (setting [5]) was 10.2 nM. The compound further showed an inhibition constant Ki in test [1] (setting [6]) of 10.2 nM. The affinity in test [2], expressed as Ki, was 1 nM. For the same compound, in test [3], the “Efficacy (GABA)%” value is on record as 69% and the “Fold increase h-GABA-A α2β2γ1 oocyte @ 30-fold Ki” value was 1.69. Moreover, in test [4], the inhibition constant (Ki) stood at 0.279 µM, the “γ2/γ1 Selectivity Ratio” value was 27.2 and the LogSel worked out at 1.44.
`C[C@@H]1N=C(c2ncccc2F)c2c(ccc(C(F)(F)F)c2Cl)-n2nc(C(=O)N3CC4(CCO4)C3)nc21` [Example 119, 1-oxa-6-azaspiro[3.3]heptan-6-yl-[(4S)-7-chloro-6-(3-fluoro-2-pyridyl)-4-methyl-8-(trifluoromethyl)-4H-[1,2,4]triazolo[1,5-a][1,4]benzodiazepin-2-yl]methanone] returned a Ki in test [1] (setting [5]) of 80.9 nM. Also, the inhibitory constant (Ki) in test [1] (setting [6]) was 80.9 nM. In addition, in test [2], the inhibitory constant (Ki) worked out at 10.3 nM. For the same compound, in test [3], the “Efficacy (GABA)%” value was 124% and the “Fold increase h-GABA-A α2β2γ1 oocyte @ 30-fold Ki” value is listed as 2.24. For the same compound, in test [4], the affinity, expressed as Ki, was 12.6 µM; the “γ2/γ1 Selectivity Ratio” value stood at 156.1; the LogSel was 2.19.

The record behind these values is US12365687B2 (Hoffmann-La Roche Inc., priority 2021, dated 2025).
